Test results as given in patent US9718790B2, “Triazine derivative and pharmaceutical composition having an analgesic activity comprising the same” (SHIONOGI & CO., LTD., priority 2010, dated 2017).
pIC50: −log10 of the molar value.

Biological target: human P2X3 receptor (Homo sapiens (Human), UniProt P56373)
Experiment: Evaluation of human P2X3 receptor inhibitory activity (Fluo-3 calcium fluorescence, FDSS 3000, ATP stimulation);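 further: stimulus was 50 nM ATP with fluorescence followed for 3 min, and the response per well was peak post-ATP fluorescence divided by the reading at measurement start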
Type: cell-based
[1] = human P2X3 receptor, Test Example 1
[2] = C6BU-1 cells stably expressing human P2X3 receptor, Fluo-3 fluorescence, FDSS 3000
[3] = C6BU-1 cells stably expressing human P2X3 receptor

Sequence of human P2X3 receptor (P56373 whole entry): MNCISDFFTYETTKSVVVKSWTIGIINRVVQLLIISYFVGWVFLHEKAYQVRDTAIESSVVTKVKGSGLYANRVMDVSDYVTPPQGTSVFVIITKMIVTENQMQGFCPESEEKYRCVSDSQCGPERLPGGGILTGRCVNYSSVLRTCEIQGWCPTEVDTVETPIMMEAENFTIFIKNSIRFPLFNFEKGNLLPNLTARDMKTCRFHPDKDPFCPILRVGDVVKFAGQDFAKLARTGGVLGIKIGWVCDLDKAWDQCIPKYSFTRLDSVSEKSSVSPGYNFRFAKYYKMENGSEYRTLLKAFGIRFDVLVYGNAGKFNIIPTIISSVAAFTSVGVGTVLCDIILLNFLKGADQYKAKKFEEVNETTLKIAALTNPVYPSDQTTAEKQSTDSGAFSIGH

Compound	pIC50 [1]	pIC50 [2]	pIC50 [3]
Cn1c(=O)[nH]/c(=N\c2ccc(Oc3cc(C(=O)O)ccn3)cc2)n(Cc2ccc(Cl)cc2)c1=O [Compound I-2391]	7.54		
CCOC(=O)CCn1c(=O)[nH]/c(=N\c2ccc(OC(C)C)c(C)c2)n(Cc2ccc(C)cc2)c1=O [Compound I-1156]		8.22	
O=c1[nH]/c(=N\c2ccc(Oc3ccon3)cc2)n(Cc2ccc(F)cc2)c(=O)n1CCCO [Compound I-2397]	7.41		
COC(=O)[C@@H](C)Cn1c(=O)[nH]/c(=N\c2ccc(O[C@H](C)C(F)(F)F)cc2)n(Cc2ccc(Cl)cc2)c1=O [Compound I-0942]		7.66	
CCCOc1ccc(/N=c2\[nH]c(=O)n(CC3(C(=O)OCC)CC3)c(=O)n2Cc2ccc(C)cc2)cc1 [Compound I-0912]		8.00	
Cc1nc2ccc(/N=c3\[nH]c(=O)n(C[C@H]4COC(C)(C)O4)c(=O)n3Cc3ccc(Cl)cc3)cc2s1 [Compound I-1603]		8.30	
CCn1c(=O)[nH]/c(=N\c2ccc(Oc3ccc(NC(C)=O)nc3)cc2)n(Cc2ccc(Cl)cc2)c1=O [Compound I-2241]	9.00		
O=c1[nH]/c(=N\c2ccc(Oc3ccon3)cc2)n(Cc2ccc(Cl)cc2)c(=O)n1CCCO [Compound I-2358]	8.22		
Cc1cc(/N=c2\[nH]c(=O)n(CC3(CO)COC3)c(=O)n2Cc2ccc(Cl)cc2)ccc1OC(C)C [Compound I-0906]		8.10	
CC(C)Oc1ccc(-n2c(NCc3ccc(Cl)cc3)nc(=S)n(C(C)C)c2=O)cc1 [Compound I-2255]	6.27		
Cc1ccc(Cn2c(=O)n(CCC(=O)O)c(=O)[nH]/c2=N\c2ccc(OCCC(C)C)cc2)cc1 [Compound I-1070]		6.33	
C=C(Cn1c(=O)[nH]/c(=N\c2ccc(OC(C)C)c(C)c2)n(Cc2ccc(Cl)cc2)c1=O)C(=O)OCC [Compound I-0779]			7.80
COC(=O)CCn1c(=O)[nH]/c(=N\c2ccc(Oc3nc(C)ns3)cc2)n(Cc2ccc(Cl)cc2)c1=O [Compound I-2651]	8.70		
COC(=O)[C@@H](C)Cn1c(=O)[nH]/c(=N\c2ccc(OC(C)C)cc2)n(Cc2ccc(C)cc2)c1=O [Compound I-0606]			7.68
CC(C)c1cccc(/N=c2\[nH]c(=O)n(C[C@H](C)C(=O)O)c(=O)n2Cc2ccc(Cl)cc2)c1 [Compound I-0792]			6.77
C[C@@H](C(=O)O)[C@H](C)n1c(=O)[nH]/c(=N\c2ccc3c(c2)CCCC3=O)n(Cc2ccc(Cl)cc2)c1=O [Compound I-1784]		6.02	
CCn1c(=O)[nH]/c(=N\c2ccc(Oc3ncccc3C#N)cc2)n(Cc2ccc(Cl)cc2)c1=O [Compound I-2345]	7.70		
Cc1ccc(Cn2c(=O)n(C[C@H](C)C(=O)O)c(=O)[nH]/c2=N\c2ccc(Oc3cccnc3)cc2)cc1 [Compound I-1123]		7.85	
Cc1ccc(Cn2c(=O)n(C[C@H](C)C(=O)O)c(=O)[nH]/c2=N\c2ccc(CC(C)(C)O)c(Cl)c2)cc1 [Compound I-1532]	7.60		
CCn1c(=O)[nH]/c(=N\c2ccc(Oc3cncc(C(N)=O)c3)cc2)n(Cc2ccc(Cl)cn2)c1=O [Compound I-2236]	7.21		
COC(=O)[C@@H](C)Cn1c(=O)[nH]/c(=N\c2ccc(OC3COC3)cc2)n(Cc2ccc(C)cc2)c1=O [Compound I-1218]			7.21
COc1cc(/N=c2\[nH]c(=O)n(C[C@H](C)C(=O)O)c(=O)n2Cc2ccc(C)cc2)ccc1OC(C)C [Compound I-1135]		7.74	

Compound	pIC50 [1]	pIC50 [2]	pIC50 [3]
COC(=O)[C@@H](C)[C@@H](C)n1c(=O)[nH]/c(=N\c2ccc(OC(C)C)c(F)c2)n(Cc2ccc(C)cc2)c1=O [Compound I-1311]			7.64
Cc1cc(/N=c2\[nH]c(=O)n(CC3(C(=O)NCCO)CC3)c(=O)n2Cc2ccc(Cl)cc2)ccc1OC(C)C [Compound I-0704]			7.64
COC(=O)[C@@H](C)Cn1c(=O)[nH]/c(=N\c2ccc(C=C(C)C)nc2)n(Cc2ccc(C)cc2)c1=O [Compound I-1301]			6.29
Cc1ccc(Cn2c(=O)n(C[C@H](C)C(=O)O)c(=O)[nH]/c2=N\c2ccc(Oc3ccnc(O)c3)cc2)cc1 [Compound I-1440]			8.22
C[C@@H](C(=O)O)[C@H](C)n1c(=O)[nH]/c(=N\c2ccc(N3CCCCC3)cc2)n(Cc2ccc(Cl)cc2)c1=O [Compound I-1393]			7.46
CCn1c(=O)[nH]/c(=N\c2ccc(Oc3ccc(C(=O)OC)o3)cc2)n(Cc2ccc(Cl)cc2)c1=O [Compound I-2150]			7.36
COc1cc(/N=c2\[nH]c(=O)n(C[C@H](C)C(=O)O)c(=O)n2Cc2ccc(C)cc2)ccc1CC(C)C [Compound I-1261]			7.74
C=C(C)c1ccc(/N=c2\[nH]c(=O)n(C[C@H](C)C(=O)OC)c(=O)n2Cc2ccc(C)cc2)cc1Cl [Compound I-1491]	6.55		
COCc1cc(/N=c2\[nH]c(=O)n(CC(C)(C)C(=O)O)c(=O)n2Cc2ccc(Cl)cc2)ccc1OC(C)C [Compound I-1430]			6.15
CCn1c(=O)[nH]/c(=N\c2ccc(Oc3ccnc(NCC(N)=O)c3)cc2)n(Cc2ccc(Cl)cc2)c1=O [Compound I-2554]	8.15		
C[C@@H](Cn1c(=O)[nH]/c(=N\c2ccc3oc(C(=O)O)cc3c2)n(Cc2ccc(Cl)cc2)c1=O)C(=O)O [Compound I-1952]			6.11
CC(C)Oc1ccc(/N=c2\[nH]c(=O)n(CCCNC(=N)N)c(=O)n2Cc2ccc(Cl)cc2)cc1F [Compound I-0634]			7.96
Cc1ccc(Cn2c(=O)n([C@H](C)[C@H](C)C(=O)O)c(=O)[nH]/c2=N\c2ccc(OC(C)C)cc2)cc1 [Compound I-1336]			7.15
CC[C@@H](C)n1c(=O)[nH]/c(=N\c2ccc(Oc3cncc(C(=O)O)c3)cc2)n(Cc2ccc(Cl)cc2)c1=O [Compound I-2483]	8.10		
CNC(=O)Cn1c(=O)[nH]/c(=N\c2ccc(Oc3ccc(O)nc3)cc2)n(Cc2ccc(Cl)cc2)c1=O [Compound I-1901]		7.82	
Cc1cc(/N=c2\[nH]c(=O)n(CC(=O)C(=O)O)c(=O)n2Cc2ccc(Cl)cc2)ccc1OC(C)C [Compound I-1009]		7.16	
CCn1c(=O)[nH]/c(=N\c2ccc(Oc3ccccc3C(N)=O)cc2)n(Cc2ccc(Cl)cc2)c1=O [Compound I-2009]			6.33
CC(CO)(CO)Cn1c(=O)[nH]/c(=N\c2ccc(Oc3cccc(F)n3)cc2)n(Cc2ccc(F)cc2)c1=O [Compound I-2526]	8.10		
Cc1ccc(Cn2c(=O)n(C[C@H](C)CO)c(=O)[nH]/c2=N\c2ccc(CC(C)C)c(Cl)c2)cc1 [Compound I-1579]		8.15	
CCOc1ccc(/N=c2\[nH]c(=O)n(CC(CO)CO)c(=O)n2Cc2ccc(Cl)cc2)cc1Cl [Compound I-1906]		8.22	
CNC(=O)Cn1c(=O)[nH]/c(=N\c2ccc(Oc3ncns3)cc2)n(Cc2ccc(Cl)cc2)c1=O [Compound I-2673]	8.15		
C[C@@H](Cn1c(=O)[nH]/c(=N\c2ccc(N3CCCCC3)cc2)n(Cc2ccc(Cl)cc2)c1=O)C(=O)O [Compound I-0962]		7.51	

Compound	pIC50 [1]	pIC50 [2]	pIC50 [3]
CCc1cc2cc(/N=c3\[nH]c(=O)n(CCCO)c(=O)n3Cc3ccc(Cl)cc3)ccc2o1 [Compound I-2336]	8.00		
CC(C)Oc1ccc(/N=c2\[nH]c(=O)n(C(C)(C)C(=O)O)c(=O)n2Cc2ccc(Cl)cc2)cc1Cl [Compound I-0651]			7.01
CCOC(=O)CCn1c(=O)[nH]/c(=N\c2ccc3oc(CC)c(C)c3c2)n(Cc2ccc(C)cc2)c1=O [Compound I-1504]	8.30		
CCc1ccc(Cn2c(=O)n(C[C@H](C)C(=O)O)c(=O)[nH]/c2=N\c2ccc(OC(C)C)c(C)c2)cc1 [Compound I-0898, (S)-1-(4-ethylbenzyl)-6-(3-mehyl-4-isopropoxyphenylimino)-3-(2-hydroxycarbonylpropyl)-1,3,5-triazinane-2,4-dion]		7.70	
Cc1ccc(Cn2c(=O)n(C[C@H](C)C(=O)O)c(=O)[nH]/c2=N\c2ccc(OC3CCCC3)nc2)cc1 [Compound I-1226]			6.91
CCOC(=O)CCn1c(=O)[nH]/c(=N\c2ccc3nc(CC)sc3c2)n(Cc2ccc(Cl)cc2)c1=O [Compound I-1505]	8.40		
Cc1nc2ccc(/N=c3\[nH]c(=O)n(CC4(C(=O)O)CC4)c(=O)n3Cc3ccc(Cl)cc3)cc2s1 [Compound I-1552]	7.82		
CCOC(=O)C1(Cn2c(=O)[nH]/c(=N\c3ccc(OCC4CC4)cc3)n(Cc3ccc(C)cc3)c2=O)CC1 [Compound I-0913]		8.05	
Cc1nc(-c2ccc(/N=c3\[nH]c(=O)n(C[C@H](C)C(=O)O)c(=O)n3Cc3ccc(Cl)cc3)cc2)no1 [Compound I-1530]	7.03		
CCn1c(=O)[nH]/c(=N\c2ccc(Oc3nccc(C(=O)O)n3)cc2)n(Cc2ccc(C)cc2)c1=O [Compound I-2404]	7.80		
COC(=O)Cn1c(=O)[nH]/c(=N\c2ccc(OC(C)C)c(Cl)c2)n(Cc2ccc(Cl)cc2)c1=O [Compound I-0660]			7.96
CC(C)Oc1ccc(/N=c2\[nH]c(=O)n(CC(=O)OCC3CCOCC3)c(=O)n2Cc2ccc(Cl)cc2)cc1Cl [Compound I-0667]			7.70
CCn1c(=O)[nH]/c(=N\c2ccc(Oc3ccnc(OC)n3)cc2)n(Cc2ccc(Cl)cc2)c1=O [Compound I-2008]			8.15
C[C@@H](Cn1c(=O)[nH]/c(=N\c2ccc3c(c2)COCO3)n(Cc2ccc(Cl)cc2)c1=O)C(=O)O [Compound I-0746]			6.85
COC(=O)[C@H](C)Cn1c(=O)[nH]/c(=N\c2ccc(OCC3CC3)cc2)n(Cc2ccc(Cl)cc2)c1=O [Compound I-1036]		8.30	
O=C(O)C1(Cn2c(=O)[nH]/c(=N\c3ccc(OCC4CC4)cc3)n(Cc3ccc(Cl)cc3)c2=O)CC1 [Compound I-0934]		7.24	
CCn1c(=O)[nH]/c(=N\c2ccc(Oc3cnc(C#N)nc3)cc2)n(Cc2ccc(Cl)cc2)c1=O [Compound I-2281]	8.70		
C[C@@H](Oc1ccc(/N=c2\[nH]c(=O)n(CCC(=O)NCCO)c(=O)n2Cc2ccc(Cl)cc2)cc1)C(F)(F)F [Compound I-1998]			7.47
Cc1ccc(Cn2c(=O)n(CCC(=O)O)c(=O)[nH]/c2=N\c2ccc(OCC3CC3)c(Cl)c2)cc1 [Compound I-0968]		6.97	
CCc1oc2ccc(/N=c3\[nH]c(=O)n(CC(C)(C)C(=O)O)c(=O)n3Cc3ccc(C)cc3)cc2c1C [Compound I-1582]		8.15	
